Assay results taken from patent publication US8865426B2, “Screening method using gelatinase-mediated EphA4 cleavage reaction as an indicator” (Eisai R&D Management Co., Ltd., priority 2010, dated 2014).

Key:
[1] = test system: gelatinase (MMP-2, MMP-9)-mediated EphA4 ectodomain cleavage reaction; test: Western blot assay of NMDA-induced EphA4 cleavage (EphA4 endodomain fragment) in hippocampal primary cultured neurons; type: cell-based, rat
Protocol: (§1) With the aim of identifying proteases which cleave off the EphA4 ectodomain in a neuronal activity-dependent manner, analysis was first performed using a specific inhibitor of gelatinase family molecules (MMP-2, MMP-9) having important functions in the brain. Neurostimulation was performed with 50 μM NMDA, and the inhibitor used was mmp-2/9 Inhibitor II ((2R)-[(4-biphenylylsulfonyl)amino]-N-hydroxy-3-phenylpropionamide, Merck). For detection of cleavage reaction, two types of antibody-based assays were used, i.e., Western blot assay using an antibody capable of recognizing the EphA4 endodomain and ELISA assay using an antibody capable of recognizing the EphA4 ectodomain.
(§2) Hippocampi were isolated from SD rats at 18 days of embryonic age (Charles River Laboratories, Inc.) and provided for culture. More specifically, fetuses were aseptically taken from pregnant rats. From these fetuses, brains were excised and soaked in 20% FBS (Hyclone)/HBSS (SIGMA). From the excised brains, hippocampi were collected under a stereoscopic microscope. […] On the other hand, the neuronal cells were collected with PBS and then quantified for their protein levels, and 10 μg aliquots were subjected to SDS-PAGE, followed by Western blotting with an anti-EphA4 antibody capable of recognizing the endodomain.

[2] = test system: gelatinase (MMP-2, MMP-9)-mediated EphA4 ectodomain cleavage reaction; test: ELISA assay of NMDA-induced EphA4 cleavage (EphA4 ectodomain in cultured solution) in hippocampal primary cultured neurons; type: cell-based, rat
Protocol: as §1, §2

| Structure (SMILES) | induction of EphA4 cleavage reaction (EphA4 endodomain fragment detected) ([1]; hippocampal neuronal cells, 50 μM NMDA, 30 minutes, FIG. 2) | neuronal activity-dependent EphA4 ectodomain cleavage reaction in hippocampal primary cultured neurons (summary statement) ([2]; concentration not given) | EphA4 cleavage event detected by ELISA with antibody recognizing the EphA4 ectodomain ([2]; hippocampal neuronal cells stimulated with 50 μM NMDA, 5 μM inhibitor, FIG. 2B) | EphA4 cleavage reaction (EphA4 endodomain fragment, Western blot) ([1]; hippocampal neuronal cells stimulated with 50 μM NMDA, 0, 1, 5, 10 or 25 μM inhibitor added, FIG. 2A) |
| --- | --- | --- | --- | --- |
| CN[C@H](CC(=O)O)C(=O)O [NMDA] | induced | – | – | – |
| O=C(NO)[C@@H](Cc1ccccc1)NS(=O)(=O)c1ccc(-c2ccccc2)cc1 [mmp-2/9 Inhibitor II, (2R)-[(4-Biphenylylsulfonyl)amino]-N-hydroxy-3-phenylpropionamide] | – | completely inhibited | completely inhibited | inhibited in a concentration-dependent manner |
